In PubChem BioAssay (NCI):
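Each compound was tested at five concentrations against cells in 96-well plates for 48 hours. GI50 = concentration required for 50% inhibition of growth. TGI is the concentration that stops growth completely.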

What was measured:
Assay in all cases: NCI tumour cell line growth inhibition, 48 h
CCRF-CEM leukemia = system: CCRF-CEM leukemia
SF-268 CNS = system: SF-268 CNS
SW-620 colon = system: SW-620 colon
HCT-116 colon = system: HCT-116 colon
SN12C renal = system: SN12C renal
KM12 colon = system: KM12 colon
SNB-75 CNS = system: SNB-75 CNS
HOP-92 NSCLC = system: HOP-92 NSCLC
HOP-62 NSCLC = system: HOP-62 NSCLC
OVCAR-5 ovarian = system: OVCAR-5 ovarian
NCI-H460 lung = system: NCI-H460 lung
UACC-257 melanoma = system: UACC-257 melanoma
IGROV1 ovarian = system: IGROV1 ovarian
K-562 leukemia = system: K-562 leukemia
ACHN renal = system: ACHN renal
SF-295 CNS = system: SF-295 CNS
OVCAR-3 ovarian = system: OVCAR-3 ovarian
786-0 renal = system: 786-0 renal
A549 NSCLC = system: A549 NSCLC
SR leukemia = system: SR leukemia
PC-3 prostate = system: PC-3 prostate
HCC-2998 colon = system: HCC-2998 colon
TK-10 renal = system: TK-10 renal
U251 CNS = system: U251 CNS
NCI-H226 lung = system: NCI-H226 lung
RPMI-8226 leukemia = system: RPMI-8226 leukemia
RXF 393 renal = system: RXF 393 renal
HCT-15 colon = system: HCT-15 colon
HS 578T breast = system: HS 578T breast
EKVX NSCLC = system: EKVX NSCLC
MDA-MB-231 breast = system: MDA-MB-231 breast
MALME-3M melanoma = system: MALME-3M melanoma
MCF7 breast = system: MCF7 breast
NCI-H522 lung = system: NCI-H522 lung
NCI-H23 lung = system: NCI-H23 lung
COLO 205 colon = system: COLO 205 colon
OVCAR-4 ovarian = system: OVCAR-4 ovarian
SNB-19 CNS = system: SNB-19 CNS
HT29 colon = system: HT29 colon
NCI/ADR-RES ovarian = system: NCI/ADR-RES ovarian
SK-MEL-28 melanoma = system: SK-MEL-28 melanoma
OVCAR-8 ovarian = system: OVCAR-8 ovarian
DU-145 prostate = system: DU-145 prostate
BT-549 breast = system: BT-549 breast

`C=CN(C(=O)N1CCN(c2cc3c(cc2F)c(=O)c(C(=O)O)cn3C2CC2)CC1)c1nc(-c2ccc(C)cc2)cs1` was tested, and the GI50 (CCRF-CEM leukemia) was 0.438 µM, the TGI (CCRF-CEM leukemia) was > 100 µM and the GI50 (SF-268 CNS) was 4.02 µM. For the same molecule, the TGI (SF-268 CNS) was > 100 µM, the GI50 (SW-620 colon) was 4.5 µM and the TGI (SW-620 colon) was > 100 µM. The GI50 (HCT-116 colon) was 0.319 µM, the TGI (HCT-116 colon) was > 100 µM and the GI50 (SN12C renal) was 3.46 µM. For the same molecule, the TGI (SN12C renal) was > 100 µM, the GI50 (KM12 colon) was 3.45 µM and the TGI (KM12 colon) was > 100 µM. For the same molecule, the GI50 (SNB-75 CNS) was 2.13 µM, the TGI (SNB-75 CNS) was 6.59 µM and the GI50 (HOP-92 NSCLC) was 1.13 µM. The TGI (HOP-92 NSCLC) was 4.39 µM, the GI50 (HOP-62 NSCLC) was 3.49 µM and the TGI (HOP-62 NSCLC) was > 100 µM. The GI50 (OVCAR-5 ovarian) was 4.14 µM, the TGI (OVCAR-5 ovarian) was > 100 µM and the GI50 (NCI-H460 lung) was 3.38 µM. The TGI (NCI-H460 lung) was > 100 µM, the GI50 (UACC-257 melanoma) was 2.81 µM and the TGI (UACC-257 melanoma) was 7.44 µM. The GI50 (IGROV1 ovarian) was 3.42 µM, the TGI (IGROV1 ovarian) was > 100 µM and the GI50 (K-562 leukemia) was 1.96 µM. For the same molecule, the TGI (K-562 leukemia) was > 100 µM, the GI50 (ACHN renal) was 3.38 µM and the TGI (ACHN renal) was > 100 µM. For the same molecule, the GI50 (SF-295 CNS) was 2.59 µM, the TGI (SF-295 CNS) was 7.11 µM and the GI50 (OVCAR-3 ovarian) was 3.83 µM. For the same molecule, the TGI (OVCAR-3 ovarian) was > 100 µM, the GI50 (786-0 renal) was 0.333 µM and the TGI (786-0 renal) was 10.5 µM. For the same molecule, the GI50 (A549 NSCLC) was 3.17 µM, the TGI (A549 NSCLC) was > 100 µM and the GI50 (SR leukemia) was 2.15 µM. The TGI (SR leukemia) was > 100 µM, the GI50 (PC-3 prostate) was 0.376 µM and the TGI (PC-3 prostate) was 6.52 µM. The GI50 (HCC-2998 colon) was 3.85 µM, the TGI (HCC-2998 colon) was > 100 µM and the GI50 (TK-10 renal) was 3.89 µM. The TGI (TK-10 renal) was > 100 µM, the GI50 (U251 CNS) was 3.39 µM and the TGI (U251 CNS) was 11.6 µM. The GI50 (NCI-H226 lung) was 2.91 µM, the TGI (NCI-H226 lung) was > 100 µM and the GI50 (RPMI-8226 leukemia) was 0.53 µM. For the same molecule, the TGI (RPMI-8226 leukemia) was > 100 µM, the GI50 (RXF 393 renal) was 4 µM and the TGI (RXF 393 renal) was > 100 µM. For the same molecule, the GI50 (HCT-15 colon) was 2.96 µM, the TGI (HCT-15 colon) was > 100 µM and the GI50 (HS 578T breast) was 3.45 µM. For the same molecule, the TGI (HS 578T breast) was 21.3 µM, the GI50 (EKVX NSCLC) was 3.61 µM and the TGI (EKVX NSCLC) was > 100 µM. For the same molecule, the GI50 (MDA-MB-231 breast) was 2.99 µM, the TGI (MDA-MB-231 breast) was > 100 µM and the GI50 (MALME-3M melanoma) was 3.35 µM. For the same molecule, the TGI (MALME-3M melanoma) was > 100 µM, the GI50 (MCF7 breast) was 2.88 µM and the TGI (MCF7 breast) was 11.5 µM. The GI50 (NCI-H522 lung) was 2.27 µM, the TGI (NCI-H522 lung) was 6.23 µM and the GI50 (NCI-H23 lung) was 3.12 µM. For the same molecule, the TGI (NCI-H23 lung) was 16.1 µM, the GI50 (COLO 205 colon) was 2.09 µM and the TGI (COLO 205 colon) was 4.72 µM. For the same molecule, the GI50 (OVCAR-4 ovarian) was 3.56 µM, the TGI (OVCAR-4 ovarian) was > 100 µM and the GI50 (SNB-19 CNS) was 4.16 µM. For the same molecule, the TGI (SNB-19 CNS) was > 100 µM, the GI50 (HT29 colon) was 3.31 µM and the TGI (HT29 colon) was > 100 µM. The GI50 (NCI/ADR-RES ovarian) was 2.67 µM, the TGI (NCI/ADR-RES ovarian) was 7.24 µM and the GI50 (SK-MEL-28 melanoma) was 4.49 µM. For the same molecule, the TGI (SK-MEL-28 melanoma) was > 100 µM, the GI50 (OVCAR-8 ovarian) was 3.33 µM and the TGI (OVCAR-8 ovarian) was 19.9 µM. For the same molecule, the GI50 (DU-145 prostate) was 3.8 µM, the TGI (DU-145 prostate) was > 100 µM and the GI50 (BT-549 breast) was 0.306 µM. The TGI (BT-549 breast) was 2.11 µM.
